Data reported in patent US8895054B2, “Methods for joint lubrication and cartilage wear prevention making use of glycerophospholipids” (Technion Research and Development Foundation Ltd., priority 2006, dated 2014).
Several values for one entry are separate records, joined by “and”; a condition that tells them apart may be missing. Equal values may be shown once.

Tests used:
[1] = cited from earlier work; for Phase transition temperature (Tm): Table 1, SO to LD, phospholipid bilayers
[2] = Partial specific adiabatic compressibility of the lipid bilayer; type: physicochemical
Protocol: • (i) phospholipid (PL) concentration, using the modified Bartlett assay^37, 38; • (ii) size distribution, for liposomes under 1 μm by dynamic light scattering using an ALV-NIBS High Performance Particle Sizer (Langen, Germany) at a scattering angle of 173°; and for liposomes above 400 nm by light diffraction using a Beckman Coulter LS Particle Size Analyzer 13-320 (Fullerton, Calif.), equipped with polarization intensity differential scattering (PIDS) to provide a dynamic detection range from 40 nm to 2000 μm; • (iii) partial specific adiabatic compressibility, by calculation from the density of the liposome dispersion (using a DMA 5000 density meter, Anton Paar, Graz, Austria) and the velocity of an 5 MHz ultrasonic wave traveling through it (using a UCC-12 ultrasonic velocimeter, NDT Instruments, Jerusalem, Israel), as described by Garbuzenko et al.^39; and • (iv) structure, using scanning electron microscopy (SEM). Cartilage: Articular cartilage from healthy or osteoarthritis humans (aged 65 to 86 years) was obtained from femoral head fracture operations or total hip replacements. Tissue was classified as normal or pathological according to the visual diagnosis. For wear rate determination, only femoral heads with normal tissue were selected. Specimens were frozen at −20° C. until sample preparation in order to keep the mechanical properties close to those of live tissue. Pairs of cylindrical plugs, having 4 mm and 8 mm in diameter, each pair from the same region of the joint, were prepared. These cylindrical plugs, consisting of about 2 mm thick cartilage on top of about 8 mm long bone, were removed from the femoral head using a cork borer. The plugs were glued to holders through the bone part, using cyanoacrylate-based adhesive glue, leaving the cartilage projecting out of the holders. Thereafter, these plugs were refrozen at −20° C. until tested. Cartilage with completely intact and smooth surface was used. Friction and wear testing: Liposomes covering a wide range of sizes and concentrations, dispersed in HB, were screened as potential lubricants to reduce friction and wear between two discs of human cartilage at 24° C. and 37° C. […] For the a qualitative evaluation of wear, the effect of friction tests on the concentration of total PL in cartilage, and on the structure of the cartilage surface was determined. PL extraction and quantification: Total PL were extracted from cartilage specimens before and after lubrication tests, using the Bligh and Dyer extraction procedure^41, 42. […]

[3] = LD phase (above Tm); cited from earlier work
[4] = tested on: joints of osteoarthritis patients; details: injection into joints of osteoarthritis patients; cited from earlier work
[5] = tested on: human articular cartilage; test: Wear determination test (GAG content in wear debris); details: added to ISF 1:1; after run-in period; 60 N (4.8 MPa)
Protocol: • (i) phospholipid (PL) concentration, using the modified Bartlett assay^37, 38; • (ii) size distribution, for liposomes under 1 μm by dynamic light scattering using an ALV-NIBS High Performance Particle Sizer (Langen, Germany) at a scattering angle of 173°; and for liposomes above 400 nm by light diffraction using a Beckman Coulter LS Particle Size Analyzer 13-320 (Fullerton, Calif.), equipped with polarization intensity differential scattering (PIDS) to provide a dynamic detection range from 40 nm to 2000 μm; • (iii) partial specific adiabatic compressibility, by calculation from the density of the liposome dispersion (using a DMA 5000 density meter, Anton Paar, Graz, Austria) and the velocity of an 5 MHz ultrasonic wave traveling through it (using a UCC-12 ultrasonic velocimeter, NDT Instruments, Jerusalem, Israel), as described by Garbuzenko et al.^39; and • (iv) structure, using scanning electron microscopy (SEM). […] For the a qualitative evaluation of wear, the effect of friction tests on the concentration of total PL in cartilage, and on the structure of the cartilage surface was determined. PL extraction and quantification: Total PL were extracted from cartilage specimens before and after lubrication tests, using the Bligh and Dyer extraction procedure^41, 42. […]

| Compound | SO-to-LD phase transition temperature, Tm [1] | Phase transition temperature (Tm) [1] [°C] | other results |
| --- | --- | --- | --- |
| CCCCCCCCCCCCCC(=O)OCC(COP(=O)(O)OCC(O)CO)OC(=O)CCCCCCCCCCCCC (stereo not drawn) [DMPG] | 23 °C |  |  |
| CCCCCCCCCCCCCCCC(=O)OC[C@H](COP(=O)([O-])OCC[N+](C)(C)C)OC(=O)CCCCCCCCCCCCCCC [DPPC, 1,2-dipalmitoyl-sn-glycero-3-phosphocholine] | 41.4 °C | 41.4 | partial specific adiabatic compressibility, K ([2]; 24° C.): 28.0 ×10^−6 mL/(g-atm); partial specific adiabatic compressibility, K ([2]; 37° C.): 31.2 ×10^−6 mL/(g-atm); water molecules per headgroup [3]: ~9.7 water molecules per headgroup; duration of mobility improvement [4]: up to 14 weeks; side effects [4]: without major side effects |
| CCCCCCCCCCCCC/C=C/[C@@H](O)[C@H](COP(=O)([O-])OCC[N+](C)(C)C)NC(=O)CCCCCCCCCCCCCCC [N-palmitoyl SM] | 41.4 °C and 41.0 °C |  |  |
| CCCCCCCCCCCCCCC(=O)OC[C@H](COP(=O)([O-])OCC[N+](C)(C)C)OC(=O)CCCCCCCCCCCCCC [1,2-dipentadecanoyl-sn-glycero-3-phosphocoline] | 33.0 °C |  |  |
| CCCCCCCC/C=C\CCCCCCCC(=O)OC[C@H](COP(=O)([O-])OCC[N+](C)(C)C)OC(=O)CCCCCCC/C=C\CCCCCCCC [DOPC, 1,2-dioleoyl-sn-glycero-3-phosphocholine] |  | −21 |  |
| hyaluronic acid [HA] |  |  | reduction of constant wear rate compared with ISF alone [5]: ~10% |
| CCCCCCCCCCCCCCCC(=O)OCC(COP(=O)(O)OCC(O)CO)OC(=O)CCCCCCCCCCCCCCC (stereo not drawn) [DPPG] | 41.4 °C |  |  |
| CCCCCCCCCCCCCC(=O)OC[C@H](COP(=O)([O-])OCC[N+](C)(C)C)OC(=O)CCCCCCCCCCCCC [DMPC, 1,2-dimyristoyl-sn-glycero-3-phosphocholine] | 23.2 °C and 23 °C | 23.2 | partial specific adiabatic compressibility, K ([2]; 24° C.): 46.4 ×10^−6 mL/(g-atm); partial specific adiabatic compressibility, K ([2]; 37° C.): 50.7 ×10^−6 mL/(g-atm); water molecules per headgroup [3]: ~9.7 water molecules per headgroup |
